The source of these data is paper PMC7567103 (Nature Communications, 2020).

Experiment [1] has as its target T1, GHRHR(23-423) (WT) (Homo sapiens, UniProt Q02643).
T1 construct: 24 h after transfection with GHRHR(23-423), GHRHR(23-405), GHRHR(23-405)-LgBiT-2MBP, or HA-Flag-GHRHR (WT and mutants); HA signal peptide (replaces native signal M1-G22) (N); expressed in transfected cells; host or cells: HEK 293 T
T1 sequence (Q02643 23-423): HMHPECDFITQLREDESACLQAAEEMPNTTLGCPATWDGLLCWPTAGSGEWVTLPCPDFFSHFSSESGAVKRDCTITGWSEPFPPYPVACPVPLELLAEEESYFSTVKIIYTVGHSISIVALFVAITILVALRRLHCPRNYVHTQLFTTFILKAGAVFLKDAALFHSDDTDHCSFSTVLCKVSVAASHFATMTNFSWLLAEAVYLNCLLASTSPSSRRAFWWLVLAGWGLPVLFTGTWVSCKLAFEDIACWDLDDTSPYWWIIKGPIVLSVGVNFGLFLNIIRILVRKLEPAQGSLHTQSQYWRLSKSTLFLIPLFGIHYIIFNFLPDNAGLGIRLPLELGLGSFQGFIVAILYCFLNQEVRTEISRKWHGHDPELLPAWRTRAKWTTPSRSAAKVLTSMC
The experiment in a line: whole cell binding, competitive inhibition of 125I-GHRH (Supplementary Fig. 2c). Conditions: competition with 80 pM 125I-GHRH; whole HEK 293T cells, RT 3 h; mean ± SEM, n = 7-8. The procedure: (§1) This assay was conducted in 96-well Iso-plates (PerkinElmer) coated with poly-D-lysine hydrobromide (Sigma-Aldrich). Twenty-four hour after transfection with GHRHR(23-423) or GHRHR(23-405)-LgBiT-2MBP, HEK 293 T cells were washed twice, and incubated with blocking buffer (DMEM medium supplemented with 33 mM HEPES, and 0.1% (w/v) BSA, pH 7.4) for 2 h at 37 °C. Then, radiolabeled ^125I-GHRH (80 pM, Phoenix Biotech) and seven decreasing concentrations of unlabeled peptide (10 μM, […]) were added and competitively reacted with the cells in binding buffer (PBS supplemented with 10% (w/v) BSA, pH 7.4) at RT for 3 h. Cells were washed with ice-cold PBS and lysed by 50 μL lysis buffer (PBS supplemented with 20 mM Tris-HCl and 1% (v/v) Triton X-100, pH 7.4). Finally, 150 μL of scintillation cocktail (OptiPhase SuperMix, PerkinElmer) was employed and radioactivity (counts per minute) read in a scintillation counter (MicroBeta[2] plate counter, PerkinElmer).
(§2) 93 of transfection. Data are normalized by the WT receptor and fitted with a three-
(§3) 94 parameter logistic equation. All values are means ± S.E.M. of at least three […]
(§4) Binding affinity is quantified by
(§5) 97 reduction of radioactivity (counts per minute, CPM) and normalized to the […]
(§6) 231 Binding data were analyzed using a three-parameter logistic equation to […]
(§7) 234 determine statistical difference. *P<0.01; ND, not determined.

The target in experiment [2] is T2, GHRHR(23-405)-15AA-LgBiT-2MBP (Homo sapiens, UniProt Q02643).
T2 construct: 24 h after transfection with GHRHR(23-423), GHRHR(23-405), GHRHR(23-405)-LgBiT-2MBP, or HA-Flag-GHRHR (WT and mutants); HA signal peptide (replaces native signal M1-G22) (N); expressed in transfected cells; host or cells: HEK 293 T
T2 sequence (Q02643 23-405): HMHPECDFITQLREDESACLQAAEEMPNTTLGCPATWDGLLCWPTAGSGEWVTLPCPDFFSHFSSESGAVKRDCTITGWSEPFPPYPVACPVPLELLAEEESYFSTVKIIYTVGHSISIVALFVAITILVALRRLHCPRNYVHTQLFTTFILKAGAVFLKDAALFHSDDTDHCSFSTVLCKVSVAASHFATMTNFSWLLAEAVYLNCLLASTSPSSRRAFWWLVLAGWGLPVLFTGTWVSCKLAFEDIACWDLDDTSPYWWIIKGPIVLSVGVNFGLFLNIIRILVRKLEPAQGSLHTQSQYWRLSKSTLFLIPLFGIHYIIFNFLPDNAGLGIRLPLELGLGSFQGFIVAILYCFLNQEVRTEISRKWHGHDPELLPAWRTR
The description is as above. The conditions noted are these: competition with 80 pM 125I-GHRH; whole HEK 293T cells, RT 3 h; mean ± SEM, n = 7-8. How it is done: as §1, §2, §3, §4, §5, §6, §7

Turning to `CC[C@H](C)[C@H](NC(=O)[C@H](C)NC(=O)[C@H](CC(=O)O)NC(=O)[C@H](C)NC(=O)[C@@H](N)Cc1ccc(O)cc1)C(=O)N[C@@H](Cc1ccccc1)C(=O)N[C@H](C(=O)N[C@@H](CC(N)=O)C(=O)N[C@@H](CO)C(=O)N[C@@H](Cc1ccc(O)cc1)C(=O)N[C@@H](CCCNC(=N)N)C(=O)N[C@@H](CCCCN)C(=O)N[C@H](C(=O)N[C@@H](CC(C)C)C(=O)NCC(=O)N[C@@H](CCC(N)=O)C(=O)N[C@@H](CC(C)C)C(=O)N[C@@H](CO)C(=O)N[C@@H](C)C(=O)N[C@@H](CCCNC(=N)N)C(=O)N[C@@H](CCCCN)C(=O)N[C@@H](CC(C)C)C(=O)N[C@@H](CC(C)C)C(=O)N[C@@H](CCC(N)=O)C(=O)N[C@@H](CC(=O)O)C(=O)N[C@H](C(=O)N[C@@H](CCSC)C(=O)N[C@@H](CO)C(=O)N[C@@H](CCCNC(=N)N)C(=O)N[C@@H](CCC(N)=O)C(=O)N[C@@H](CCC(N)=O)C(=O)NCC(=O)N[C@@H](CCC(=O)O)C(=O)N[C@@H](CO)C(=O)N[C@@H](CC(N)=O)C(=O)N[C@@H](CCC(N)=O)C(=O)N[C@@H](CCC(=O)O)C(=O)N[C@@H](CCCNC(=N)N)C(=O)NCC(=O)N[C@@H](C)C(=O)N[C@@H](CCCNC(=N)N)C(=O)N[C@@H](C)C(=O)N[C@@H](CCCNC(=N)N)C(=O)N[C@@H](CC(C)C)C(N)=O)[C@@H](C)CC)C(C)C)[C@@H](C)O` [GHRH, Growth hormone-releasing hormone], the results for the IC50 in experiment [1] and in experiment [2] were 2.75 nM and 0.879 nM, respectively.
